The source of these data is patent US20250241862A1, “EXOSOMAL COMPOSITIONS INCLUDING ANESTHETICS” (THE BOARD OF TRUSTEES OF THE UNIVERSITY OF ALABAMA, priority 2024, published 2025).

Counter-ions that a name gives are not always drawn.

The conditions of data set [1]: osmotic shock method; cited from earlier work.
The subject of data set [2] is sciatic nerve. Kind of data set: Sciatic nerve histology (toluidine blue) for neurotoxicity. The data set is classed as in vivo, rat. The source says: For nerve injury histology, samples underwent Epon-embedding and fixation using Karnovsky's KII Solution, which comprises 2.5% glutaraldehyde, 2.0% paraformaldehyde, and 0.025% calcium chloride in a 0.1 M sodium cacodylate buffer with a pH of 7.4. Subsequently, samples were post-fixed using osmium tetroxide, stained with uranyl acetate, and then dehydrated through a series of ethanol solutions. This was followed by infiltration with mixtures of propylene oxide and Epon. Sections, with a thickness of 0.5 μm, were then stained using toluidine blue, facilitating high-resolution light microscopy examination.
Epon-embedded sections of the sciatic nerve were stained with toluidine blue. […] Furthermore, when 2.5 mg free BUP was injected, 3 out of 4 tissues presented significant nerve degeneration, which is determined by the density decrease of nerve fibers within the nerve section (FIG. 6b).

Data set [3] relates to sciatic nerve. The experiment in a line: Rat sciatic nerve block, neurobehavioral test (hot plate thermal latency, weight bearing). The data set is classed as in vivo. The settings on record: for nerve block at injected site (observation): single sciatic nerve injection 0.3 mL. An excerpt:
Adult male Sprague-Dawley rats (Charles River Laboratories, Wilmington, MA) weighing 250-350 g were housed in groups, in a 6 am-6 pm light-dark cycle. Animals were cared for in accordance with protocols approved by the Institutional Animal Care and Use Committee of the University of Alabama (Protocol ID: 19-11-2992), and the Guide for the Care and Use of Laboratory Animals of the US National Research Council.
Nerve block injections were meticulously executed utilizing a 23-gauge needle, with rats being anesthetized under a combination of isoflurane and oxygen. […] Additionally, injections of free BUP were given at doses of 0.75 mg and 1.5 mg. A control group received an injection of 50 μg of empty exosomes. The injection technique involved positioning the needle posteromedially to the greater trochanter and directing it anteromedially. Upon making contact with the bone, the prepared solution was administered.
Subsequently, the rats underwent neurobehavioral test to determine the duration of functional deficits (i.e., sensory and motor nerve blockade) in both hind paws. The duration of deficits on the injected side (left, ipsilateral) reflected the duration of nerve block. Any deficits observed on the uninjected side (right, contralateral) were indicative of the systemic BUP distribution.
The efficacy of the nerve block was assessed at specified intervals using established methodologies. Sequentially, the left and then the right hind paws of the rats were subjected to a 56° C. hot plate (model 39D Hot Plate Analgesia meter; IITC Inc., Woodland Hills, CA). The duration until the paw was withdrawn, termed thermal latency, was meticulously recorded. […] Thermal latency serves as an indicator of analgesic potency. […] For a systemic effect baseline, latency was also gauged in the non-injected leg. The duration of the thermal nociceptive block was determined as the time taken for the thermal latency to revert from an elevated value to a baseline of 7 seconds. In adult rats, this 7-second threshold represents the median between the maximum block and the typical thermal latency, which is roughly 2 seconds, with the upper limit being 12 seconds. Motor function was evaluated by suspending the animal over a balance and recording the maximum weight the animal could bear. The duration of motor blockade was determined as the period until weight-bearing capacity returned to half of its normal level from the point of maximal block. For each rat, the halfway point was calculated as [(highest weight borne by either leg)−(lowest weight borne by the blocked leg)]/2+the lowest weight borne by the blocked leg.

The subject of data set [4] is muscle at the injection site. Kind of data set: Muscle histology (H&E) inflammation and myotoxicity scoring. It is filed as in vivo, rat. The source says: Following euthanasia, the sciatic nerve and adjacent muscle tissues were meticulously extracted. Muscle specimens underwent processing to yield slides stained with hematoxylin and eosin. A macroscopic dissection score was assigned based on the following criteria: 0=tissue planes obvious and easily separated; 1=tissue planes obvious but separated with some difficulty; 2=tissue planes adherent and separated with some difficulty; 3=tissue planes completely obliterated, could not separate surrounding tissues from nerve without cutting through them. Muscle samples underwent evaluation for inflammation (on a scale of 0-4) and myotoxicity (on a scale of 0-6). The inflammation score was a subjective measure of its severity. The myotoxicity score was based on two hallmark features of local anesthetic-induced myotoxicity: nuclear internalization and regeneration. […] Regeneration manifests as contracted myocytes with basophilic cytoplasm. The scoring was as follows: 0=normal; 1=perifascicular internalization; 2=deep internalization (>5 cell layers), 3=perifascicular regeneration, 4=deep regeneration, 5=hemifascicular regeneration, 6=holofascicular regeneration.
The sciatic nerve and surrounding tissues were harvested, sectioned, and stained for histologic assessment. Muscle tissues were processed for hematoxylin-eosin (H&E) staining. The myotoxicity and inflammation were quantified using a previously reported scoring system (Table 1, Table 2).

Data set [5] relates to Creatine Kinase (CK-total, CK-MB) activity in serum. The experiment in a line: Serum creatine kinase activity (CK-total, CK-MB), cardiotoxicity. It is filed as in vivo, rat. The settings on record: 48 hours after injection. As to the method: In another experiment, rats were euthanized at the 48-hour mark. Blood samples were meticulously collected through two methods: a cardiac puncture, which involves drawing blood directly from the heart, and a separate collection from the femoral artery. Once collected, the blood samples were subjected to centrifugation, a process that separates the serum from other blood components. The isolated serum was then analyzed for creatine kinase activity using a colorimetric assay kit for creatine kinase activity. The intensity was quantified using a plate-reader, an instrument that measures absorbance levels.
It is important to recognize that the side effects of BUP and other local anesthetics go beyond just localized tissue reactions. A major concern with administering BUP is its potential harmful cardiotoxic effects. This can be particularly severe in certain instances, such as arrhythmias and cardiac asystole. Cardiotoxicity can be observed through increased activity of Creatine Kinase(CK), an family of enzymes that is released into the blood in response to lesions in contractile fibers, serve as biochemical markers for muscle damage, including myocardial injury. Elevated activity levels of CK, especially its cardiomyocyte isoform—Creatine Kinase-Myocardial Band (CK-MB), can be a warning sign for serious outcomes such as cardiac arrhythmias, heart failure, and other cardiovascular complications.
Two types of samples were obtained: from the femoral artery and cardiac puncture. These samples were analyzed to evaluate the activity in serum of total CK (CK-total) and its cardiomyocyte isoform (CK-MB).

A short description of data set [6]: In vitro release of BUP by dialysis. The settings on record: dialysis 8-10 kD, 1×PBS pH 7.4, 37° C.; free BUP at 0.5% (w/v) and saturated concentrations. The data set is classed as physicochemical. As to the method: To assess the release kinetics of BUP from the BUP@EXO, a dialysis method was employed. Specifically, 1 mL of BUP@EXO, containing 5 mg BUP, was introduced into a Spectra/Por Float-A-Lyzer G2 dialysis bag with a molecular weight cutoff ranging from 8-10 kD (Spectrum Laboratories, Ranchodominguez, CA). This bag was then immersed in 20 mL of phosphate-buffered saline (PBS) with a pH of 7.4. The setup was maintained at 37° C. and subjected to continuous 200 rpm shaking. At specified time points, the dialysis bag was relocated to fresh 1×PBS to ensure a consistent concentration gradient. The concentration of BUP in the dialysate was ascertained by measuring its absorbance at 272 nm and referencing it against a pre-established standard curve. We collected the washout solutions (filtrate) in the lower chambers of centrifugal filters. Subsequently, these solutions underwent UV-Vis spectroscopy to determine the BUP concentration. The encapsulation efficiency is thereby calculated by
We conducted in-depth in vitro drug release kinetic analysis at 37° C. for our BUP@EXO formulations. 1 mL of BUP@EXO in 1×PBS, containing 5 mg BUP, was introduced into a dialysis bag with a molecular weight cutoff ranging from 8-10 kD. The dialysis bag was then immersed in 20 mL of 1×PBS with a pH of 7.4. The setup was maintained at 37° C. and subjected to continuous shaking of 200 rpm. […]

With `CC(=O)CCCCn1c(=O)c2c(ncn2C)n(C)c1=O` [pentoxifylline], the “encapsulation efficiency (drug per protein-equivalent exosomes)” value in data set [1] is listed as 0.85 μg of drug per μg of protein-equivalent exosomes.
Take `CCCCN1CCCCC1C(=O)Nc1c(C)cccc1C` (stereo not shown) [free BUP, Bupivacaine Hydrochloride]: in the data set with sciatic nerve [2] (1.5 mg, 48 hours), the “tissues with signs of neurotoxicity” value is recorded as 1 out of 4. Further, the “tissues with significant nerve degeneration” value in the data set on sciatic nerve [2] (2.5 mg) was 3 out of 4. Besides, the “success rate of nerve blockade” value in the data set on sciatic nerve [3] (0.75 mg BUP equivalent) was 0%. Moreover, the “contralateral nerve blockade (systemic distribution)” value in the data set with sciatic nerve [3] (0.75 mg BUP equivalent, uninjected side) was “no contralateral nerve blockade”; with sciatic nerve [3] (1.5 mg BUP equivalent, uninjected side) it was “no contralateral nerve blockade”. The “nerve block at injected site (observation)” value is given as “neither a detectable nerve block nor toxicity” with sciatic nerve [3] (0.75 mg BUP in PBS) and “successfully induced nerve block at the injected sites in all animals” in the data set with sciatic nerve [3] (1.5 mg BUP in PBS). The “duration of motor blockade” value in the data set with sciatic nerve [3] (1.5 mg BUP equivalent) stood at 0.458 ± 0.176 h; in the data set with sciatic nerve [3] (2.5 mg BUP equivalent) it was 2.12 ± 0.54 h. Further, the “duration of sensory nerve blockade” value came to 1.833 ± 0.250 h in the data set on sciatic nerve [3] (1.5 mg BUP equivalent) and 2.75 ± 0.43 h in the data set with sciatic nerve [3] (2.5 mg BUP equivalent). For the same compound, the occurrence of drowsiness in the data set on sciatic nerve [3] (2.5 mg BUP) is given as 3 out of 4 animals. Also, the “contralateral sensory nerve blockade (systemic distribution)” value in the data set on sciatic nerve [3] (2.5 mg BUP equivalent, uninjected side) is reported as 3 out of 4 animals. In the data set with sciatic nerve [3] (2.5 mg BUP, uninjected side, 56° C. hot plate), the contralateral thermal latency is listed as about 7 s. In addition, in data set [4] (1.5 mg, 4 days, 1 of 4 rats), the “myotoxicity score (scale 0-6)” value is given as 2. Further, in data set [4] (2.5 mg, 48 hours), the “inflammation score (out of 4)” value is “up to 3”. For the same compound, the “myotoxicity score (out of 6)” value in data set [4] (2.5 mg, 48 hours) was “up to 3”. Moreover, in data set [5] (0.75 mg), the “Creatine Kinase activity profiles (CK-total, CK-MB) vs blank control” value is reported as “did not result in significant alteration”. Further, the “CK activity vs blank control” value in data set [5] (1.5 mg) and in data set [5] (2.5 mg) was “considerable elevation in CK activity” each time. Moreover, the “cumulative release within initial 5-hour period” value in data set [6] was “near-complete cumulative release”.
